The values below come from US20150125506A1, “RETINAL PIGMENT EPITHELIAL CELLS DIFFERENTIATED FROM EMBRYONIC STEM CELLS WITH NICOTINAMIDE AND ACTIVIN A” (HADASIT MEDICAL RESEARCH SERVICES AND DEVELOPMENT LTD., priority 2007, published 2015).

In one assay the test system is hESCs. In words: Differentiation of hESC free-floating clusters into pigmented (RPE) cells, counted as pigmented clusters and cells. Format: cell-based, human. As to the method:
Human ESC (HES1 cell line) and hESCs engineered by lentiviral vector to constitutively express eGFP [Gropp M, Itsykson P, Singer O, Ben-Hur T, Reinhartz E, Galun E, and Reubinoff B E. Stable genetic modification of human embryonic stem cells by lentiviral vectors. Molecular Therapy 7:281-7 (2003)] were cultured on human foreskin fibroblasts feeder layers in KO medium (KOM) consisting of 86% KO-DMEM (Gibco, Invitrogen, Gaithersburg, Md.), 14% KOSR (Gibco), 1 mM glutamine, 1% nonessential amino acids, 50 units/ml penicillin (Gibco), 50 μg/ml streptomycin, (Gibco) and 4 ng/ml bFGF (R&D Systems, Inc., Minneapolis, Minn.). hES cells were weekly passaged with type IV collagenase (1 mg/ml; Gibco) and plated onto a fresh feeder layer. A week before induction of differentiation, the cells were passaged by dissociation into nearly a single-cell suspension with Ca/Mg^++-free PBS supplemented with 0.05% EDTA (Biological Industries, Beit Haemek, Israel) and were re-plated on the feeders.
Six-eight days after plating the hES cells that were dissociated into single cells as above; they were removed from the feeders by treatment with type IV collagenase. The clumps were cultured for various periods up to 12 weeks in suspension within bacteriological dishes precoated with 0.1% low melting temperature agarose in KO medium (KOM) consisting of 86% KO-DMEM, 14% KOSR, 1 mM glutamine, 1% nonessential amino acids, 50 units/ml penicillin, and 50 μg/ml streptomycin, in the presence or absence of 10 mM nicotinamide (NA) (Sigma, St. Louis, Mo., USA). In some experiments the medium used was Neurobasal™ medium (Gibco) supplemented with N2 supplement (1:100) (Gibco) (NN medium), which was substituted after 1 week with DMEM/F12 (Gibco) supplemented with B27 (1:50) (Gibco).
Human ESCs were allowed to differentiate as free-floating clusters in KOM as above for up to six weeks in the presence of nicotinamide (NA) 10 mM. After the first week or 2 weeks of differentiation, cultures were supplemented with activin A 20-180 ng/ml (PeproTech Inc, Rocky Hill, N.J.), with TGFβ3 (1 ng/ml; R&D Systems Inc, Minneapolis, Minn.) with TGFβ1 (1 ng/ml-20 ng/ml; R&D Systems Inc) or with SB431542 (5 μM-50 μM, Sigma). Control cultures were supplemented with NA alone.
Human ESCs in suspension in KOM were also supplemented after one week with the bone morphogenetic protein (BMP) antagonist noggin (700 ng/ml R&D Systems Inc, Minneapolis, Minn.) in the presence and absence of NA, or during the 3rd and 4th weeks with TGFβ (20 ng/ml PeproTech Inc) in the presence of NA and allowed to differentiate up to an age of 6 weeks as free-floating clusters in suspension.

The test system of the next assay is hESC clusters. Briefly: Indirect immunofluorescent staining of differentiated cells within clusters. The assay is classed as cell-based, human. As to the method:
To characterize the immunophenotype of cells within the aggregates, the clusters cultivated for 2, 4, 6 or 8 weeks were gently dissociated either with 0.04% trypsin/0.04% EDTA or with Papain Dissociation System (Worthington Biochemical, Lakewood, N.J.), and the resulting small clumps and single cells were plated in KO medium supplemented with NA on poly-D-lysine (30-70 kDa, 10-20 μg/ml) alone or supplemented with either laminin (4 μg/ml) or fibronectin (10-20 μg/ml; all from Sigma, St. Louis, http://www.sigmaaldrich.com). The cells were fixed with 4% paraformaldehyde after 2 hours and examined for the expression of nestin (1:200), polysialic acid NCAM (PSA-NCAM) (1:100), Musashi (1:200; all from Chemicon, Temecula, from CA), Pax6 (DSHB, 1:100 or Chemicon, 1:250), Otx2 (Chemicon, 1:200), MiTF (Lab Vision Corporation, Fremont, Calif.; mouse IgG1, 1:50).

The mark [1] stands for this setting: 4 weeks, NA with activin A vs NA without activin A.
Setting [2] is: 8 weeks of differentiation in presence of NA.
The mark [3] stands for this setting: at 4 weeks, NA-treated clusters.

Structures are written as SMILES.

`NC(=O)c1cccnc1` [NA, nicotinamide]: in the assay with hESCs (setting [1]), the “percentage of clusters that included pigmented cells” value turned out to be 17.7±3.2% and the “percentage of pigmented cells from the total number of cells” value turned out to be 2.4±1.2%. Further, the “percentage of cells that were pigmented within clusters” value in the assay on hESCs (setting [2]) was found to be 5.7±1.0%. In addition, the “percentage of clusters that had pigmented areas” value in the assay on hESCs (after 8 weeks of differentiation, KO medium with NA 10 mM) is listed as 72.9±2.5%. Besides, the “percentage of cells expressing the early RPE marker MiTF” value in the assay with hESC clusters (setting [2]) was 5.4±1.1%. Moreover, in the assay on hESC clusters (setting [3]), the “percentage of cells expressing Musashi (immunofluorescence)” value was found to be 71.4%, the “percentage of cells expressing PSA-NCAM (immunofluorescence)” value is reported as 74.2±4.1% and the “percentage of cells expressing nestin (immunofluorescence)” value was found to be 55.9±10.1%.
